Test results: publication PMC8991199, “Promiscuity mapping of the S100 protein family using a high-throughput holdup assay” (Scientific Reports, 2022)

Legend:
S100A8 = biological target: T1, S100A8 (Homo sapiens, UniProt P05109); test: direct fluorescence polarization (FP), S100A8; assay type: binding; conditions: S100A8, 50 nM labeled foldamer, 20 mM HEPES pH 7.5, 150 mM NaCl, 1 mM CaCl2, 0.5 mM TCEP, 0.01% Tween20, quadratic fit, mean ± SEM, three technical repeats, threshold 1 mM
T1 sequence (P05109 1-93): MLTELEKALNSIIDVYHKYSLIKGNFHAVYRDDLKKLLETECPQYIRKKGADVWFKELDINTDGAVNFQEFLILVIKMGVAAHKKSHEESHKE
Protocol: HTP (and also low-throughput) measurements generally need to be validated by an orthogonal approach to eliminate experimental artifacts. […] This way, we chose WL, IF, WW, YF, IL, VL, TW, RF, RR, TI, TM, and after resynthesizing with a fluorescent label at the C-terminus (Figs. S15–S26, Table S1), the S100ome was tested against the labeled foldamers by direct fluorescence polarization (FP) (Fig. 3A). In this assay, the association of the fluorescently labeled foldamer and the S100 protein of interest is monitored, through the change in polarization of the emitted light by the fluorophore upon the binding event. In direct FP, the presence of the fluorophore might change the binding affinity of some foldamers. […] Nevertheless, we assumed that the fluorophore would affect all foldamers that target the same binding site to the same degree, because the foldamer scaffold is rigid. Defining the threshold of detection at the dissociation constant of 1 mM, we identified 87 interactions between the selected foldamer fragments and the S100ome out of 220 possible interactions (Table 1, Fig. S4-14).
(§1) Briefly, S100 proteins were cloned into a modified pET15b vector with a TEV protease cleavable N-terminal His6-tag and expressed in Escherichia coli BL21 (DE3) cells, followed by Ni^2+-affinity chromatography. For HU assay, S100 proteins were further purified by either hydrophobic interaction chromatography or ion exchange chromatography without the cleavage of the N-terminal His6-tag applying standard conditions. For direct FP measurements, the N-terminal His6-tag was cleaved, and the S100 proteins were purified by hydrophobic interaction chromatography, ion exchange chromatography or size exclusion chromatography. The quality of the recombinant proteins was checked by SDS-PAGE analysis in all cases. The concentration of the recombinant S100 proteins was determined by UV spectrophotometry using the absorbance of Tyr and Trp residues.
(§2) In direct fluorescence polarization assays, S100 proteins were diluted in a buffer containing 50 nM labeled foldamer, 20 mM HEPES pH 7.5, 150 mM NaCl, 1 mM CaCl2, 0.5 mM TCEP and 0.01% Tween20. The dilution series (50 µl) were divided into three technical repeats and transferred (15 µl) to a 384-well microplate. In competitive fluorescence polarization assays, the buffer applied in direct measurements was supplemented with the S100 protein of interest to reach a saturation of 60–80%. This mixture was titrated with the competitor (i.e. the unlabeled peptide). Fluorescence polarization was measured in 8 different S100 concentrations (one of which contained no S100 protein) on a Synergy H4 plate reader using 485 ± 20 nm and 528 ± 20 nm band-pass filters for excitation and emission, respectively. The Kd values were obtained by fitting the data from the FP measurements with the python-based ProFit software using quadratic and competitive binding equation for direct and competitive FP, respectively. The detection threshold was based on two parameters. First, we rejected all fitted dissociation constants above 1 mM.

S100A6 = S100A6 (Homo sapiens, UniProt P06703); test: direct fluorescence polarization (FP), S100A6; assay type: binding
Description: HTP (and also low-throughput) measurements generally need to be validated by an orthogonal approach to eliminate experimental artifacts. […] In this assay, the association of the fluorescently labeled foldamer and the S100 protein of interest is monitored, through the change in polarization of the emitted light by the fluorophore upon the binding event. In direct FP, the presence of the fluorophore might change the binding affinity of some foldamers. […] Nevertheless, we assumed that the fluorophore would affect all foldamers that target the same binding site to the same degree, because the foldamer scaffold is rigid.
as §1, §2

[1] = solubility by light scattering; conditions: 20 mM HEPES, 150 mM NaCl, 2 mM CaCl2, pH 7.5, 10 nM to 1 mM, triplicates

Kd (S100A8)	Kd (S100A6)	Structure (SMILES)	concentration above which light scattering is increased ([1]; Fig. S2, absorbance at 650 nm)	concentration at which aggregation was observed ([1]; light scattering on 600 nm (text; method: absorbance at 650 nm))
770 ± 180 µM	–	C[C@@H](O)[C@@H](CC(=O)N[C@H]1CCCC[C@@H]1C(=O)N[C@H]1CCCC[C@@H]1C(=O)N[C@H](CC(=O)N[C@H]1CCCC[C@@H]1C(=O)NCC(=O)N[C@@H](CCCCNC(=O)c1ccc2c(c1)C1(OC2=O)c2ccc(O)cc2Oc2cc(O)ccc21)C(N)=O)Cc1c[nH]c2ccccc12)NC(=O)[C@H]1CCCC[C@@H]1N [fTW]	–	–
> 1000 µM	517 ± 57 µM	CSCC[C@@H](CC(=O)N[C@H]1CCCC[C@@H]1C(=O)NCC(=O)N[C@@H](CCCCNC(=O)c1ccc2c(c1)C1(OC2=O)c2ccc(O)cc2Oc2cc(O)ccc21)C(N)=O)NC(=O)[C@H]1CCCC[C@@H]1NC(=O)[C@H]1CCCC[C@@H]1NC(=O)C[C@@H](NC(=O)[C@H]1CCCC[C@@H]1N)[C@@H](C)O [fTM]	–	–
> 1000 µM	699 ± 63 µM	CC[C@H](C)[C@@H](CC(=O)N[C@H]1CCCC[C@@H]1C(=O)NCC(=O)N[C@@H](CCCCNC(=O)c1ccc2c(c1)C1(OC2=O)c2ccc(O)cc2Oc2cc(O)ccc21)C(N)=O)NC(=O)[C@H]1CCCC[C@@H]1NC(=O)[C@H]1CCCC[C@@H]1NC(=O)C[C@@H](NC(=O)[C@H]1CCCC[C@@H]1N)[C@@H](C)O [fTI]	–	–
> 1000 µM	–	CC(C)C[C@@H](CC(=O)N[C@H]1CCCC[C@@H]1C(=O)NCC(=O)N[C@@H](CCCCNC(=O)c1ccc2c(c1)C1(OC2=O)c2ccc(O)cc2Oc2cc(O)ccc21)C(N)=O)NC(=O)[C@H]1CCCC[C@@H]1NC(=O)[C@H]1CCCC[C@@H]1NC(=O)C[C@@H](NC(=O)[C@H]1CCCC[C@@H]1N)C(C)C [fVL]	–	–
> 1000 µM	–	CC[C@H](C)[C@@H](CC(=O)N[C@H]1CCCC[C@@H]1C(=O)N[C@H]1CCCC[C@@H]1C(=O)N[C@H](CC(=O)N[C@H]1CCCC[C@@H]1C(=O)NCC(=O)N[C@@H](CCCCNC(=O)c1ccc2c(c1)C1(OC2=O)c2ccc(O)cc2Oc2cc(O)ccc21)C(N)=O)CC(C)C)NC(=O)[C@H]1CCCC[C@@H]1N [fIL]	–	–
> 1000 µM	–	N=C(N)NCCC[C@@H](CC(=O)N[C@H]1CCCC[C@@H]1C(=O)N[C@H]1CCCC[C@@H]1C(=O)N[C@H](CC(=O)N[C@H]1CCCC[C@@H]1C(=O)NCC(=O)N[C@@H](CCCCNC(=O)c1ccc2c(c1)C1(OC2=O)c2ccc(O)cc2Oc2cc(O)ccc21)C(N)=O)Cc1ccccc1)NC(=O)[C@H]1CCCC[C@@H]1N [fRF]	–	–
> 1000 µM	> 1000 µM	N=C(N)NCCC[C@@H](CC(=O)N[C@H]1CCCC[C@@H]1C(=O)NCC(=O)N[C@@H](CCCCNC(=O)c1ccc2c(c1)C1(OC2=O)c2ccc(O)cc2Oc2cc(O)ccc21)C(N)=O)NC(=O)[C@H]1CCCC[C@@H]1NC(=O)[C@H]1CCCC[C@@H]1NC(=O)C[C@H](CCCNC(=N)N)NC(=O)[C@H]1CCCC[C@@H]1N [fRR]	–	–

Structure (SMILES)	Kd (S100A8)	Kd (S100A6)	concentration above which light scattering is increased ([1]; Fig. S2, absorbance at 650 nm)	concentration at which aggregation was observed ([1]; light scattering on 600 nm (text; method: absorbance at 650 nm))
CC[C@H](C)[C@@H](CC(=O)N[C@H]1CCCC[C@@H]1C(=O)N[C@H]1CCCC[C@@H]1C(=O)N[C@H](CC(=O)N[C@H]1CCCC[C@@H]1C(=O)NCC(=O)N[C@@H](CCCCNC(=O)c1ccc2c(c1)C1(OC2=O)c2ccc(O)cc2Oc2cc(O)ccc21)C(N)=O)Cc1ccccc1)NC(=O)[C@H]1CCCC[C@@H]1N [fIF]	750 ± 46 µM	–	–	–
NC(=O)[C@H](CCCCNC(=O)c1ccc2c(c1)C1(OC2=O)c2ccc(O)cc2Oc2cc(O)ccc21)NC(=O)CNC(=O)[C@H]1CCCC[C@@H]1NC(=O)C[C@H](Cc1ccccc1)NC(=O)[C@H]1CCCC[C@@H]1NC(=O)[C@H]1CCCC[C@@H]1NC(=O)C[C@H](Cc1ccc(O)cc1)NC(=O)[C@H]1CCCC[C@@H]1N [fYF]	180 ± 42 µM	–	–	–
CC(C)C[C@@H](CC(=O)N[C@H]1CCCC[C@@H]1C(=O)NCC(=O)N[C@@H](CCCCNC(=O)c1ccc2c(c1)C1(OC2=O)c2ccc(O)cc2Oc2cc(O)ccc21)C(N)=O)NC(=O)[C@H]1CCCC[C@@H]1NC(=O)[C@H]1CCCC[C@@H]1NC(=O)C[C@H](Cc1c[nH]c2ccccc12)NC(=O)[C@H]1CCCC[C@@H]1N [fWL]	74 ± 3.5 µM	30 ± 1.7 µM	–	–
NC(=O)[C@H](CCCCNC(=O)c1ccc2c(c1)C1(OC2=O)c2ccc(O)cc2Oc2cc(O)ccc21)NC(=O)CNC(=O)[C@H]1CCCC[C@@H]1NC(=O)C[C@H](Cc1c[nH]c2ccccc12)NC(=O)[C@H]1CCCC[C@@H]1NC(=O)[C@H]1CCCC[C@@H]1NC(=O)C[C@H](Cc1c[nH]c2ccccc12)NC(=O)[C@H]1CCCC[C@@H]1N [fWW]	> 1000 µM	100 ± 3.2 µM	above 1 μM	10 µM
